Assay: Photochromic response rates on an optical bench (polymer test squares)
Assay type: physicochemical
Conditions: for ΔOD@ SATURATION: UV exposure continued for 20 minutes, test square; for ΔOD@ SATURATION / ΔOD/MIN SENSITIVITY: 75° F. (23.9° C.); for ΔOD/MIN SENSITIVITY: measured over first five (5) seconds of UV exposure, expressed per minute, BPA 2EO DMA / poly(ethyleneglycol) 600 dimethacrylate test square; for Bleach (T1/2): time for absorbance of activated form to reach one half the highest absorbance, room temperature (75° F., 23.9° C.), after removal of activating light; for LAMBDA MAX (VISIBLE): wavelength of maximum absorption of the activated (colored) form, in a diethylene glycol bis(allyl carbonate) composition
Protocol: Testing was done with the photochromic naphthopyrans of the Examples incorporated into polymeric samples by the following method. The quantity of naphthopyran calculated to yield a 1.5 times 10^-3 molal solution was added to a flask containing 50 grams of a monomer blend of 4 parts ethoxylated bisphenol A dimethacrylate (BPA 2EO DMA), 1 part poly(ethyleneglycol) 600 dimethacrylate, and 0.033 weight percent 2,2'-azobis(2-methyl propionitrile) (AIBN). The naphthopyran was dissolved into the monomer blend by stirring and gentle heating, if necessary. After a clear solution was obtained, it was poured into a flat sheet mold having the interior dimensions of 2.2 mm×6 inches (15.24 cm)×6 inches (15.24 cm). The mold was sealed and placed in a horizontal air flow, programmable oven set to increase the temperature from 40° C. to 95° C. over a 5 hour interval, hold the temperature at 95° C. for 3 hours and then lower it to 60° C. for at least 2 hours before the end of the curing cycle. After the mold was opened, the polymer sheet was cut using a diamond blade saw into 2 inch (5.1 centimeters) test squares.
The photochromic test squares prepared in Part A were tested for photochromic response rates on an optical bench. […] The bench was fitted with a 150 watt Xenon arc lamp, a remote controlled shutter, a copper sulfate bath acting as a heat sink for the arc lamp, a Schott WG-320 nm cut-off filter which removes short wavelength radiation; neutral density filter(s) and a sample holder in which the square to be tested was inserted. A collimated beam of light from a tungsten lamp was passed through the square at a small angle normal to the square. After passing through the square, the light from the tungsten lamp was directed through a photopic filter attached to a detector. The photopic filter passes wavelengths such that the detector mimics the response of the human eye. The output signals from the detector(s) were processed by a radiometer.
Change in optical density (ΔOD) was determined by inserting a test square in the bleached state into the sample holder, adjusting the transmittance scale to 100%, opening the shutter from the Xenon lamp to provide ultraviolet radiation to change the test square from the bleached state to an activated (i.e., darkened) state, measuring the transmittance in the activated state, and calculating the change in optical density according to the formula Δ OD=log(100/%Ta) where %Ta is the percent transmittance in the activated state and the logarithm is to the base 10.
The Δ OD/Min, which represents the sensitivity of the photochromic compound's response to UV light, was measured over the first five (5) seconds of UV exposure, then expressed on a per minute basis. The saturation optical density (OD) was taken under identical conditions as the Δ OD/Min, except UV exposure was continued for 20 minutes for the examples in Table 1. The lambda max reported in Table 1 is the wavelength in the visible spectrum at which the maximum absorption of the activated (colored) form of the photochromic compound in a diethylene glycol bis(allyl carbonate) composition occurs.

Structure (SMILES) | ΔOD@ SATURATION | ΔOD/MIN SENSITIVITY | Bleach (T1/2) | LAMBDA MAX (VISIBLE) | bleach rate, i.e., fade rate (in words) (conclusion from Table 1)
COc1ccc(C2(c3ccc(OC)cc3)C=Cc3c(CO)c(C)c4ccc(OC)cc4c3O2)cc1 [Example 1, 2,2-bis(4-methoxyphenyl)-5-hydroxymethyl-6-methyl-9-methoxy-2H-naphtho[1,2-b]pyran] | 0.42 | 0.38 ΔOD/MIN | 5.05 min | 520 | 
COc1ccc(C2(c3ccc(OC)cc3)C=Cc3c(CO)c(-c4ccccc4)c4ccccc4c3O2)cc1 [Example 2, 2,2-bis(4-methoxyphenyl)-5-hydroxymethyl-6-phenyl-2H-naphtho[1,2-b]pyran] | 0.26 | 0.32 ΔOD/MIN | 2.48 min | 506 | 
COc1ccc(C2(c3ccc(OC)cc3)C=Cc3c(COC(C)=O)c(-c4ccccc4)c4ccccc4c3O2)cc1 [Example 3, 2,2-bis(4-methoxyphenyl)-5-acetoxymethyl-6-phenyl-2H-naphtho[1,2-b]pyran] | 0.25 | 0.33 ΔOD/MIN | 1.82 min | 508 | 
COc1ccc(C2(c3ccc4c(c3)CCO4)C=Cc3c(C(=O)N4CCCCC4)c(C)c4ccc(OC)cc4c3O2)cc1 (centres unmarked) [Example 4, 2-(4-methoxyphenyl)-2-(2,3-dihydrobenzofuran-5-yl)-5-piperidinocarbonyl-6-methyl-9-methoxy-2H-naphtho[1,2-b]pyran] | 0.65 | 0.34 ΔOD/MIN | > 13.3 min | 535 | fades much slower

Source: patent US5656206A, “Substituted naphthopyrans” (Transitions Optical, Inc., priority 1995, dated 1997)
